Converted amounts (≈) assume the structure as drawn.
Columns and labels:
[1] = system: Mycobacterium tuberculosis; assay: Antitubercular activity against Mycobacterium tuberculosis H37Rv assessed as inhibition of bacterial growth incubated for 5 days by Alamar Blue based assay; format: functional, organism-based; conditions: 120 h
[2] = system: Mycobacterium tuberculosis; assay: Antitubercular activity against Mycobacterium tuberculosis by alamar blue assay; format: functional
[3] = system: Mycolicibacterium smegmatis; assay: Antimycobacterial activity against Mycobacterium smegmatis; format: functional
[4] = system: Mycobacterium tuberculosis; assay: Antitubercular activity against Mycobacterium tuberculosis H37Rv; format: functional

Structure (SMILES)	IC50 [1] [µg/mL]	MIC [2] [µM]	MIC [3] [µM]	MIC [4] [µM]
Cc1ccc(O)c(-c2cc(C(F)(F)C(F)F)no2)c1	12.8 (≈ 46.5 µM)			
Oc1ccccc1-c1cc(C(F)(F)F)no1	11.7 (≈ 51.1 µM)			
CCCCCCCCCCCC(=O)NS(=O)(=O)OC[C@H]1O[C@@H](n2cnc3c(N)ncnc32)[C@H](O)[C@@H]1O		100 (≈ 52.9 µg/mL)	215 (≈ 114 µg/mL)	100 (≈ 52.9 µg/mL)
Nc1ncnc2c1ncn2[C@@H]1O[C@H](COS(=O)(=O)NC(=O)c2ccc(O)cc2)[C@@H](O)[C@H]1O		> 800		
